From ChEMBL document CHEMBL5442663, “ASAP - Solubility” (2024)
Converted amounts (≈) assume the structure as drawn. “And” between values parts separate entries of the source, which are not always exact repeats. Equal values may be shown once.

Assay: Kinetic solubility of compound by measuring concentration at pH 7.4 in saturated PBS buffer by UV LCMS/MS using calibration curves. The assay has been performed by Enamine biological services, Bienta Ltd.The protocol is publicly available: dx.doi.org/10.17504/protocols.io.j8nlk8y41l5r/v1
Format: physicochemical
Details: for solubility kinetic: PBS buffer; for Solubility (mean): buffer

solubility kinetic [µM] | Solubility (mean) | Structure (SMILES)
385 (≈ 143 µg/mL) | 386 µM (≈ 143 µg/mL) | CC(C)[C@@H](Nc1ncnc2[nH]ccc12)c1ccc2c(c1)S(=O)(=O)CCC2
392 (≈ 195 µg/mL) |  | CC(C)[C@@H](Nc1ncnc2[nH]c(C(=O)N[C@H]3CCN(C)C3)cc12)c1ccc2c(c1)S(=O)(=O)CCC2
328 (≈ 145 µg/mL) |  | CCNC(=O)c1cc2c(N[C@@H](c3ccc4c(c3)S(=O)(=O)CCO4)C(C)C)ncnc2[nH]1
63 (≈ 29.3 µg/mL) |  | Cc1nn(C)cc1-c1cc2c(N[C@@H](c3ccc4c(c3)S(=O)(=O)CCC4)C(C)C)ncnc2[nH]1
336 (≈ 148 µg/mL) | 316 µM (≈ 140 µg/mL) | CCNC(=O)c1cc2c(N[C@@H](c3ccc4c(c3)S(=O)(=O)CCC4)C(C)C)ncnc2[nH]1
25 (≈ 11.1 µg/mL) | 24 µM (≈ 10.7 µg/mL) | Cn1ncc(-c2cc3c(N[C@@H](c4ccc5c(n4)OCCO5)C(C)(C)C)ncnc3[nH]2)c1C#N
380 (≈ 145 µg/mL) |  | CNC(=O)c1cc2c(N[C@@H](c3ccc4c(c3)OCCO4)C(C)C)ncnc2[nH]1
15 (≈ 7.55 µg/mL) |  | CNC(=O)c1cccc(-c2cc3c(N[C@@H](c4ccc5c(c4)S(=O)(=O)CCC5)C(C)C)ncnc3[nH]2)c1
338 (≈ 167 µg/mL) |  | CC(C)[C@H](Nc1ncnc2[nH]c(-c3cnn(CC(N)=O)c3)cc12)c1ccc2c(c1)S(=O)(=O)CCC2
65 (≈ 30.2 µg/mL) |  | Cc1nn(C)cc1-c1cc2c(N[C@H](c3ccc4c(c3)S(=O)(=O)CCC4)C(C)C)ncnc2[nH]1
392 (≈ 195 µg/mL) |  | CC(C)[C@@H](Nc1ncnc2[nH]c(C(=O)N[C@@H]3CCN(C)C3)cc12)c1ccc2c(c1)S(=O)(=O)CCC2
105 (≈ 47.4 µg/mL) |  | CC(C)[C@@H](Nc1ncnc2[nH]c(-c3cnn(C)c3)cc12)c1ccc2c(c1)S(=O)(=O)NCC2
22 (≈ 10.5 µg/mL) |  | CC(C)[C@H](Nc1ncnc2[nH]c(-c3cnn(C)c3C#N)cc12)c1ccc2c(c1)S(=O)(=O)CCC2
321 (≈ 154 µg/mL) | 345 µM (≈ 165 µg/mL) | CNCc1cc(-c2cc3c(N[C@@H](c4ccc5c(c4)S(=O)(=O)CCC5)C(C)C)ncnc3[nH]2)co1
89 (≈ 41.1 µg/mL) |  | CC(C)(C)[C@H](Nc1ncnc2[nH]c(-c3cnn(CC(N)=O)c3)cc12)c1ccc2c(c1)OCCO2
358 (≈ 172 µg/mL) |  | CNCc1cc(-c2cc3c(N[C@H](c4ccc5c(c4)S(=O)(=O)CCC5)C(C)C)ncnc3[nH]2)co1
28 (≈ 12.4 µg/mL) |  | CC(C)[C@H](Nc1ncnc2[nH]c(-c3cnn(C)c3C#N)cc12)c1ccc2c(n1)NC(=O)CO2
372 (≈ 179 µg/mL) |  | CNCc1cc(-c2cc3c(N[C@@H](c4ccc5c(c4)S(=O)(=O)NCC5)C(C)C)ncnc3[nH]2)co1
372 (≈ 139 µg/mL) |  | CC(C)[C@@H](Nc1ncnc2[nH]ccc12)c1ccc2c(c1)S(=O)(=O)CCO2
389 (≈ 131 µg/mL) | 374 µM (≈ 126 µg/mL) | CC(C)[C@@H](Nc1ncnc2[nH]ccc12)c1ccc2c(c1)NC(=O)CO2
395 (≈ 144 µg/mL) |  | COc1ccc([C@@H](Cc2nnn[nH]2)NC(=O)c2ncnc3[nH]ccc23)cc1
26 (≈ 11.5 µg/mL) |  | CC(C)[C@H](Nc1ncnc2[nH]c(-c3cnn(C)c3C#N)cc12)c1ccc2c(c1)NC(=O)CO2
344 (≈ 152 µg/mL) |  | CCNC(=O)c1cc2c(N[C@@H](c3ccc4c(c3)S(=O)(=O)NCC4)C(C)C)ncnc2[nH]1
111 (≈ 50 µg/mL) |  | CC(C)[C@H](Nc1ncnc2[nH]c(-c3cnn(C)c3)cc12)c1ccc2c(c1)S(=O)(=O)CCC2
306 (≈ 155 µg/mL) | 294 µM (≈ 149 µg/mL) | CNC(=O)Cn1cc(-c2cc3c(N[C@@H](c4ccc5c(c4)S(=O)(=O)CCC5)C(C)C)ncnc3[nH]2)cn1

solubility kinetic [µM] | Solubility (mean) | Structure (SMILES)
89 (≈ 38.3 µg/mL) | 60 µM and 50 µM | CC(C)[C@@H](Nc1ncnc2[nH]c(-c3cnn(C)c3C#N)cc12)c1ccc2c(n1)OCCO2
53 (≈ 22.8 µg/mL) |  | CC(C)[C@H](Nc1ncnc2[nH]c(-c3cnn(C)c3C#N)cc12)c1ccc2c(n1)OCCO2
17 (≈ 7.3 µg/mL) | 20 µM (≈ 8.59 µg/mL) | CC(C)[C@@H](Nc1ncnc2[nH]c(-c3cnn(C)c3C#N)cc12)c1ccc2c(c1)OCCO2
374 (≈ 139 µg/mL) |  | CC(C)[C@H](Nc1ncnc2[nH]ccc12)c1ccc2c(c1)S(=O)(=O)CCC2
257 (≈ 117 µg/mL) | 216 µM (≈ 98 µg/mL) | CC(C)[C@@H](Nc1ncnc2[nH]cc(C(=O)NC3CC3)c12)c1ccc2c(c1)S(=O)(=O)CCC2
6 (≈ 3.01 µg/mL) |  | CC(C)[C@@H](Nc1ncnc2[nH]c(-c3ccc4nnn(C)c4c3)cc12)c1ccc2c(c1)S(=O)(=O)CCC2
94 (≈ 42.4 µg/mL) | 111 µM (≈ 50 µg/mL) | CC(C)[C@@H](Nc1ncnc2[nH]c(-c3cnn(C)c3)cc12)c1ccc2c(c1)S(=O)(=O)CCC2
385 (≈ 173 µg/mL) | 395 µM (≈ 177 µg/mL) | CC(C)[C@@H](Nc1ncnc2[nH]c(-c3cnn(CC(N)=O)c3)cc12)c1ccc2c(n1)OCCO2
236 (≈ 109 µg/mL) |  | CC(C)[C@@H](Nc1ncnc2[nH]c(-c3cnn(CCC(N)=O)c3)cc12)c1ccc2c(c1)OCCO2
323 (≈ 164 µg/mL) |  | CNC(=O)Cn1cc(-c2cc3c(N[C@H](c4ccc5c(c4)S(=O)(=O)CCC5)C(C)C)ncnc3[nH]2)cn1
14 (≈ 6.81 µg/mL) |  | CC(C)[C@@H](Nc1ncnc2[nH]c(-c3ccc4cncn4c3)cc12)c1ccc2c(c1)S(=O)(=O)CCC2
31 (≈ 16.3 µg/mL) |  | CC(C)[C@@H](Nc1ncnc2[nH]c(-c3cncc(S(C)(=O)=O)c3)cc12)c1ccc2c(c1)S(=O)(=O)CCC2
341 (≈ 168 µg/mL) | 335 µM (≈ 165 µg/mL) | CC(C)[C@@H](Nc1ncnc2[nH]c(-c3cnn(CC(N)=O)c3)cc12)c1ccc2c(c1)S(=O)(=O)CCC2
369 (≈ 158 µg/mL) | 397 µM (≈ 170 µg/mL) | CNC(=O)c1cc2c(N[C@@H](c3ccc4c(c3)S(=O)(=O)CCC4)C(C)C)ncnc2[nH]1
13 (≈ 6.55 µg/mL) |  | CNC(=O)c1cccc(-c2cc3c(N[C@H](c4ccc5c(c4)S(=O)(=O)CCC5)C(C)C)ncnc3[nH]2)c1
210 (≈ 99.9 µg/mL) | 205 µM (≈ 97.5 µg/mL) | CC(C)[C@@H](Nc1ncnc2[nH]c(-c3cnn(CC(=O)N(C)C)c3)cc12)c1ccc2c(c1)OCCO2
29 (≈ 12.9 µg/mL) | 28 µM (≈ 12.4 µg/mL) | CC(C)[C@@H](Nc1ncnc2[nH]c(-c3cnn(C)c3C#N)cc12)c1ccc2c(n1)NC(=O)CO2
34 (≈ 16.2 µg/mL) | 26 µM (≈ 12.4 µg/mL) | CC(C)[C@@H](Nc1ncnc2[nH]c(-c3cnn(C)c3C#N)cc12)c1ccc2c(c1)S(=O)(=O)CCC2
336 (≈ 144 µg/mL) |  | CNC(=O)c1c[nH]c2ncnc(N[C@H](c3ccc4c(c3)S(=O)(=O)CCC4)C(C)C)c12
25 (≈ 11.1 µg/mL) |  | Cn1ncc(-c2cc3c(N[C@@H](c4ccc5c(c4)OCCO5)C(C)(C)C)ncnc3[nH]2)c1C#N
263 (≈ 104 µg/mL) |  | CCNC(=O)c1cc2c(N[C@H](c3ccc4c(c3)OCCO4)C(C)C)ncnc2[nH]1
345 (≈ 154 µg/mL) | 332 µM (≈ 149 µg/mL) | CC(C)[C@@H](Nc1ncnc2[nH]c(-c3cnn(CC(N)=O)c3)cc12)c1ccc2c(c1)OCCO2
289 (≈ 133 µg/mL) |  | CNC(=O)Cn1cc(-c2cc3c(N[C@@H](c4ccc5c(c4)OCCO5)C(C)C)ncnc3[nH]2)cn1
386 (≈ 156 µg/mL) |  | C[C@@H](C(=O)O)[C@@H](NC(=O)c1ncnc2[nH]ccc12)c1ccc(Br)cc1
195 (≈ 90 µg/mL) | 104 µM (≈ 48 µg/mL) | CC(C)(C)[C@@H](Nc1ncnc2[nH]c(-c3cnn(CC(N)=O)c3)cc12)c1ccc2c(c1)OCCO2

solubility kinetic [µM] | Solubility (mean) | Structure (SMILES)
319 (≈ 122 µg/mL) |  | CNC(=O)c1c[nH]c2ncnc(N[C@@H](c3ccc4c(c3)OCCO4)C(C)C)c12
390 (≈ 167 µg/mL) | 204 µM (≈ 87.2 µg/mL) | CNC(=O)c1c[nH]c2ncnc(N[C@@H](c3ccc4c(c3)S(=O)(=O)CCC4)C(C)C)c12
≥ 400 |  | CC(C)[C@H](CO)Nc1ncnc2[nH]ccc12
280 (≈ 125 µg/mL) |  | CC(C)[C@H](Nc1ncnc2[nH]c(-c3cnn(CC(N)=O)c3)cc12)c1ccc2c(c1)OCCO2
375 (≈ 138 µg/mL) |  | CC(C)[C@@H](Nc1ncnc2[nH]cc(C(N)=O)c12)c1ccc2c(c1)OCCO2
28 (≈ 11 µg/mL) |  | CNC(=O)c1c[nH]c2ncnc(N[C@@H](c3ccc4c(c3)NC(=O)CO4)C(C)C)c12
319 (≈ 138 µg/mL) |  | O=C(Nc1ccccc1)Nc1ccc(C(=O)NC2c3cccc(O)c3CC2C(=O)O)cc1 (stereo not given)
372 (≈ 172 µg/mL) |  | CC(C)(C)[C@H](Nc1ncnc2[nH]c(-c3cnn(CC(N)=O)c3)cc12)c1ccc2c(n1)OCCO2
374 (≈ 160 µg/mL) |  | CNC(=O)c1cc2c(N[C@H](c3ccc4c(c3)S(=O)(=O)CCC4)C(C)C)ncnc2[nH]1
377 (≈ 169 µg/mL) |  | CC(C)[C@H](Nc1ncnc2[nH]c(-c3cnn(CC(N)=O)c3)cc12)c1ccc2c(n1)OCCO2
396 (≈ 197 µg/mL) |  | CC(C)[C@H](Nc1ncnc2[nH]c(C(=O)N[C@H]3CCN(C)C3)cc12)c1ccc2c(c1)S(=O)(=O)CCC2
378 (≈ 178 µg/mL) |  | COCCNC(=O)c1c[nH]c2ncnc(N[C@@H](c3ccc4c(c3)S(=O)(=O)CCC4)C(C)C)c12
≥ 400 |  | CC(C)[C@@H](Nc1ncnc(N)c1Cl)c1ccc2c(c1)S(=O)(=O)CCC2
25 (≈ 11.5 µg/mL) |  | CC(C)[C@@H](Nc1ncnc2[nH]c(-c3cnn(CC(N)=O)c3)cc12)c1ccc2c(c1)NC(=O)CO2
19 (≈ 8.62 µg/mL) |  | CC(C)[C@H](Nc1ncnc2[nH]cc(C(=O)NC3CC3)c12)c1ccc2c(c1)S(=O)(=O)CCC2
372 (≈ 147 µg/mL) | 380 µM (≈ 150 µg/mL) | CNC(=O)c1cc2c(N[C@@H](c3ccc4c(c3)NC(=O)CO4)C(C)C)ncnc2[nH]1
371 (≈ 125 µg/mL) |  | CC(C)[C@H](Nc1ncnc2[nH]ccc12)c1ccc2c(c1)NC(=O)CO2
≥ 400 |  | COc1ccc([C@@H](NC(=O)c2[nH]cnc3nccc2-3)C(C)c2nnn[nH]2)cc1 (stereo not given in full)
≥ 400 |  | COc1ccc([C@@H](CC(=O)O)NC(=O)c2ncnc3[nH]ccc23)cc1
361 (≈ 188 µg/mL) |  | CC(C)[C@H](Nc1ncnc2[nH]c(-c3cnn(CC(=O)N(C)C)c3)cc12)c1ccc2c(c1)S(=O)(=O)CCC2
366 (≈ 182 µg/mL) |  | CC(C)[C@H](Nc1ncnc2[nH]c(C(=O)N[C@@H]3CCN(C)C3)cc12)c1ccc2c(c1)S(=O)(=O)CCC2
14 (≈ 4.51 µg/mL) |  | COc1ccc2c(c1)CCN(c1ncnc3[nH]ccc13)[C@H]2C(C)C
15 (≈ 6.44 µg/mL) |  | CC(C)[C@H](Nc1ncnc2[nH]c(-c3cnn(C)c3C#N)cc12)c1ccc2c(c1)OCCO2
≥ 400 |  | O=C(Nc1cccc2c(C(=O)N[C@@H]3c4ccccc4C[C@@H]3C(=O)O)c[nH]c12)NC1CC1
337 (≈ 149 µg/mL) |  | CCNC(=O)c1cc2c(N[C@H](c3ccc4c(c3)S(=O)(=O)CCC4)C(C)C)ncnc2[nH]1
